Consider 26 compounds from patent publication US20150344404A1, “PDK4 INHIBITOR AND USE THEREOF” (THE KITASATO INSTITUE, priority 2012, published 2015).

The structures appear in SMILES notation.

The target in one series is recombinant human PDK4 (Homo sapiens, UniProt Q16654). Description: PDK4 enzyme inhibitory activity by off-chip mobility shift assay. In kind it is biochemical. The following applies: Table 34; recombinant human PDK4, room temperature, 5 hours; read-out: IC50, PDK inhibitory activity of representative compounds. On the procedure: Measurement of PDK4/PDK2 inhibitory activity by off-chip mobility shift assay: The compound solution (5 μL), 4×substrate/ATP/metal mixture (5 μL) and 2×recombinant human PDK4 (5 μL) were added to 384 well micro plate. After reacting at room temperature for 5 hours, the reaction stop solution (60 μL) was added to above solution. The substrate peptide (S) and phosphorylated peptide (P) was quantified using LabChip3000, then the inhibitory activity was calculated from the ratio (P/P+S).
Chain of recombinant human PDK4 (Q16654 whole entry): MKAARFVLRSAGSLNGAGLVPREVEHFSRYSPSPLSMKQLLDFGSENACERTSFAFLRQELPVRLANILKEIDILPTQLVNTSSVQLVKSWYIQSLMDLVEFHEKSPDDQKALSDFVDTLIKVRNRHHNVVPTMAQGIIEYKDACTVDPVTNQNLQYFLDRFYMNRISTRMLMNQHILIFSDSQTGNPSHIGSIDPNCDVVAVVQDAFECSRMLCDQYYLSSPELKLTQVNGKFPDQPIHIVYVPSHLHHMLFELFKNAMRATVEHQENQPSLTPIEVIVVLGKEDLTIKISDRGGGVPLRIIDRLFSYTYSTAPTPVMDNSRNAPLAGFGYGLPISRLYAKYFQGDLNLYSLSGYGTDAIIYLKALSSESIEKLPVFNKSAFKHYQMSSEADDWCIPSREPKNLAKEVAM
For the compound `CC1=CC(=O)c2cc(C(C)O)ccc2C1=O` (racemic) [KIS92, (±)-2-methyl-6-(1-hydroxyethyl)-1,4-naphthoquinone], the concentration for half-maximal inhibition (IC50) stood at 46 µM.

On to `CC1=CC(=O)c2ccccc2C1=O` [KIS12], for which the IC50 is 38 µM.

For `O=C(O)c1ccc2c(c1)C(=O)C=CC2=O` [KIS19], the IC50 worked out at 19 µM.

Regarding `O=C1CCC(=O)c2c(O)ccc(O)c21` [KIS58], the IC50 was 12 µM.

As for `Cc1cc(N)c2ccccc2c1O` [KIS61], the half-inhibitory concentration (IC50) was determined as 27 µM.

Turning to `COC1=CC(=O)c2ccccc2C1=O` [KIS69], the IC50 stood at 26 µM.

As for `CC1=CC(=O)c2ccc(C(=O)O)cc2C1=O` [KIS78, 7-carboxyl-2-methyl-1,4-naphthoquinone], the IC50 is 46 µM.

In the case of `COC(=O)c1cc(O)c2c(c1)C(=O)C(C)=CC2=O` [KIS79, 7-carbomethoxy-5-hydroxy-2-methyl-1,4-naphthoquinone], the IC50 turned out to be 9 µM.

Regarding `CC1=CC(=O)c2c(O)cc(C(=O)O)cc2C1=O` [KIS90, 7-carboxy-5-hydroxy-2-methyl-1,4-naphthoquinone], the IC50 came out at 20 µM.

Consider `CC1=CC(=O)c2cc(C(=O)O)ccc2C1=O` [KIS93, 6-carboxyl-2-methyl-1,4-naphthoquinone], for which the IC50 is 36 µM.

Consider `COC(=O)c1ccc2c(c1)C(=O)C=C(C)C2=O` [KIS95, 6-carbomethoxy-2-methyl-1,4-naphthoquinone], for which the IC50 came out at 26 µM.

As for `CC1=CC(=O)c2cc(CO)ccc2C1=O` [KIS96, 6-hydroxymethyl-2-methyl-1,4-naphthoquinone], the IC50 came out at 30 µM.

For `CC1=CC(=O)c2cc(C=O)ccc2C1=O` [KIS97, 6-formyl-2-methyl-1,4-naphthoquinone], the IC50 was 18 µM.

For `CC1=CC(=O)c2cc(C(=O)NCC(=O)OC(C)(C)C)ccc2C1=O` [KIS98, Glycine, N-[(1,4-dihydro-1,4-dioxo-2-methyl-6-naphthylenyl)carbonyl], tert-butyl ester], the IC50 was determined as 23 µM.

Regarding `CC1=CC(=O)c2cc(C(=O)NCC(=O)O)ccc2C1=O` [KIS99, N-[(1,4-dihydro-1,4-dioxo-2-methyl-6-naphthylenyl)carbonyl]glycine], the IC50 worked out at 21 µM.

Staying with this series, now noted: Table 35; recombinant human PDK4, room temperature, 5 hours; read-out: IC50.
For the compound `CC1=CC(=O)c2ccncc2C1=O` [KIS118], the half-maximal inhibitory concentration (IC50) stood at 16 µM.

As for `CC1=CC(=O)c2ccc(C=O)cc2C1=O` [KIS126], the IC50 turned out to be 22 µM.

As to `CCOC(=O)c1ccc2c(c1)C(=O)C=C(C)C2=O` [KIS127], the 50% inhibitory concentration (IC50) is 26 µM.

In the case of `CC1=CC(=O)c2ccc(CO)cc2C1=O` [KIS128], the IC50 worked out at 27 µM.

With `CC1=CC(=O)c2cc(C(=O)N[C@@H](CO)C(=O)O)ccc2C1=O` [KIS131, N-[(1,4-dihydro-1,4-dioxo-2-methyl-6-naphthylenyl)carbonyl]serine], the 50% inhibitory concentration (IC50) is 20 µM.

With `CC1=C(Br)C(=O)c2ccccc2C1=O` [KIS147], the IC50 was determined as 26 µM.

Take `CC(=O)OCc1ccc2c(c1)C(=O)C=C(C)C2=O` [KIS148]: the IC50 worked out at 19 µM.

`CC1=CC(=O)c2cc(C=CC(=O)NCC(=O)O)ccc2C1=O` [KIS151]: the IC50 turned out to be 17 µM.

As for `C#CCNC(=O)c1ccc2c(c1)C(=O)C=C(C)C2=O` [KIS153], the IC50 came to 36 µM.

The test system of the next series is PDK isozymes 1, 2 and 3.
Experiment: not given
The following applies: background art; cited from earlier work.
As for `CN(C)C(=O)c1ccc(S(=O)(=O)c2ccc(NC(=O)[C@@](C)(O)C(F)(F)F)c(Cl)c2)cc1` [AZD7545], the “IC50 against PDK isozymes 1, 2 and 3” value was “sub μM order”.

System in a further series: not given
Experiment: not given
The following applies: background art; cited from earlier work.
As to `O=C(O)C(Cl)Cl` [Dichloro acetic acid], the side effect result is reported as “neurotoxicity”.
